Patent publication US5407683A (Research Corporation Technologies, Inc., priority 1992, dated 1995)
Values after ≈ are worked out from the molar mass of the structure shown.

Legend:
[1] = thermal stability of taxol; type: physicochemical; settings: 130° C.
Procedure: The process steps can in many cases be performed at about room temperature. […] The process steps should be performed to avoid melting or decomposition of the matrix compound, i.e., the process should be performed at temperatures less than about the melting point or decomposition point of the matrix compound, generally about 140° C. or less. […] Thus preferred temperatures for performing the process steps are about 60° C. to about 130° C.

[2] = solubilization of taxol in squalane oil; type: physicochemical; settings: 4.0 mg taxol in 0.400 ml squalane oil, methanol removed
Procedure: The methanol was then removed with heating and nitrogen blanket at about 60° C. for 10 minutes.

Lewis lung tumor = settings: cited from earlier work
melanoma = settings: cited from earlier work
[3] = nonemulsified form; cited from earlier work
[4] = cited from earlier work
[5] = precipitation of taxol from oil solution under vacuum; type: physicochemical; settings: bath temperatures less than 50° to 60° C.
colon = settings: cited from earlier work
leukemia = settings: cited from earlier work
sarcomas = settings: cited from earlier work
microtubules = settings: in vitro; cited from earlier work
breast = settings: cited from earlier work

CC(=O)O[C@H]1C(=O)[C@@]2(C)[C@H]([C@H](OC(=O)c3ccccc3)[C@]3(O)C[C@H](OC(=O)[C@H](O)[C@@H](NC(=O)c4ccccc4)c4ccccc4)C(C)=C1C3(C)C)[C@]1(OC(C)=O)CO[C@@H]1C[C@@H]2O [Taxol]
thermal stability [1]: stable for at least about two hours | solubilization of taxol in squalane oil [2]: completely solubilized | activity against Lewis lung tumor system (Lewis lung tumor): active | activity against melanoma (melanoma): active | degradation in the stomach [3]: degraded in the stomach | solubility in vehicle ([4]; ethanol:cremophor EL:isotonic saline (5:5:90)): ≤ 600 µg/mL | solubility in most oils ([4]; safflower, olive and soybean oil): 300 to 600 µg/mL | solubility in soybean oil ([4]; soybean oil): 300 µg/mL (≈ 351 µM) | solubility in triacetin ([4]; triacetin): 30000 µg/mL (≈ 35100 µM) | precipitation from the oil solution [5]: tends to precipitate from the oil solution | activity against colon tumor system (colon): active | activity against leukemia (leukemia): active | activity against sarcomas (sarcomas): active | concentrations that stabilize microtubules, thus disrupting normal cell division (microtubules): 0.1 to 10.0 µg/mL | activity against breast tumor system (breast): active
